Earlier results in US10561602B2 (priority 2015, dated 2020).

How the values were obtained:
[1] = n-octanol/0.05 M phosphate buffer at pH 7.4
[2] = water and both basic and acidic aqueous solutions

**Q.** With `CC(C)C[C@H](CN)CC(=O)O` [Pregabalin, (S)-3-(aminomethyl)-5-methylhexanoic acid] as the compound, how does the “log of the partition coefficient” value [1] read?
**A.** The value was “about −1.35”.

**Q.** And the solubility [2]?
**A.** The solubility was “freely soluble”.
